Assays:
Rattus norvegicus [1] = test: Anti-inflammatory activity in Rattus norvegicus (rat) assessed as inhibition of carrageenan-induced paw edema at 10 mg/kg, po measured at 30 min post carrageenan-challenge (reference value: 5.1 +/- 0.29%); assay type: functional; details: 0.5 h
Rattus norvegicus [2] = test: Anti-inflammatory activity in Rattus norvegicus (rat) assessed as inhibition of carrageenan-induced paw edema at 10 mg/kg, po measured at 2 hr post carrageenan-challenge (reference value: 5.7+/- 0.32%); assay type: functional
Mus musculus [3] = test: Analgesic activity in Mus musculus Wistar albino (mouse) at 20 mg/kg, po after 30 min by tail-flick test (reference value: 2 +/- 0.35%); assay type: functional
Rattus norvegicus [4] = test: Anti-inflammatory activity in Rattus norvegicus (rat) assessed as inhibition of carrageenan-induced paw edema at 20 mg/kg, po measured at 2 hr post carrageenan-challenge (reference value: 5.7+/- 0.32%); assay type: functional
Mus musculus [5] = test: Analgesic activity in Mus musculus Wistar albino (mouse) at 10 mg/kg, po after 2 hr by tail-flick test (reference value: 4 +/- 0.59%); assay type: functional
Rattus norvegicus [6] = test: Anti-inflammatory activity in Rattus norvegicus (rat) assessed as inhibition of carrageenan-induced paw edema at 20 mg/kg, po measured at 1 hr post carrageenan-challenge (reference value: 6.1 +/- 0.27%); assay type: functional
Mus musculus [7] = test: Analgesic activity in Mus musculus Wistar albino (mouse) at 20 mg/kg, po after 3 hr by tail-flick test (reference value: 4 +/- 0.91%); assay type: functional
Rattus norvegicus [8] = test: Anti-inflammatory activity in Rattus norvegicus (rat) assessed as inhibition of carrageenan-induced paw edema at 10 mg/kg, po measured at 1 hr post carrageenan-challenge (reference value: 6.1 +/- 0.27%); assay type: functional
Rattus norvegicus [9] = test: Gastrointestinal toxicity in Rattus norvegicus Wistar albino (rat) assessed as ulcer index at 20 mg/kg, ip administered QD for 3 days measured on day 4 (reference value: 0.15 +/- 0.32); assay type: organism-based; design: dose 20 mg/kg, route intraperitoneal; details: in vivo, 72 h
Rattus norvegicus [10] = test: Anti-inflammatory activity in Rattus norvegicus (rat) assessed as inhibition of carrageenan-induced paw edema at 10 mg/kg, po measured at 3 hr post carrageenan-challenge (reference value: 3.2 +/- 0.93%); assay type: functional
Rattus norvegicus [11] = test: Anti-inflammatory activity in Rattus norvegicus (rat) assessed as inhibition of carrageenan-induced paw edema at 20 mg/kg, po measured at 30 min post carrageenan-challenge (reference value: 5.1 +/- 0.29%); assay type: functional; details: 0.5 h
Mus musculus [12] = test: Analgesic activity in Mus musculus Wistar albino (mouse) at 10 mg/kg, po after 3 hr by tail-flick test (reference value: 4 +/- 0.91%); assay type: functional
Mus musculus [13] = test: Analgesic activity in Mus musculus Wistar albino (mouse) at 20 mg/kg, po after 1 hr by tail-flick test (reference value: 6 +/- 0.49%); assay type: functional
Mus musculus [14] = test: Analgesic activity in Mus musculus Wistar albino (mouse) at 10 mg/kg, po after 1 hr by tail-flick test (reference value: 6 +/- 0.49%); assay type: functional
Mus musculus [15] = test: Analgesic activity in Mus musculus Wistar albino (mouse) at 20 mg/kg, po after 2 hr by tail-flick test (reference value: 4 +/- 0.59%); assay type: functional
Rattus norvegicus [16] = test: Anti-inflammatory activity in Rattus norvegicus (rat) assessed as inhibition of carrageenan-induced paw edema at 20 mg/kg, po measured at 3 hr post carrageenan-challenge (reference value: 3.2 +/- 0.93%); assay type: functional
Mus musculus [17] = test: Analgesic activity in Mus musculus Wistar albino (mouse) at 10 mg/kg, po after 30 min by tail-flick test (reference value: 2 +/- 0.35%); assay type: functional

CC/C(C)=N/Nc1nc2ccccc2c(=O)n1Cc1ccccc1
inhibition in vivo at 10 mg/kg (Rattus norvegicus [1]): 45% | inhibition in vivo at 10 mg/kg (Rattus norvegicus [2]): 51% | Activity (Mus musculus [3]): 71% | inhibition in vivo at 20 mg/kg (Rattus norvegicus [4]): 60% | Activity (Mus musculus [5]): 65% | inhibition in vivo at 20 mg/kg (Rattus norvegicus [6]): 59% | Activity (Mus musculus [7]): 45% | inhibition in vivo at 10 mg/kg (Rattus norvegicus [8]): 48% | UI (Rattus norvegicus [9]): 0.53 | inhibition in vivo at 10 mg/kg (Rattus norvegicus [10]): 26% | inhibition in vivo at 20 mg/kg (Rattus norvegicus [11]): 50% | Activity (Mus musculus [12]): 35% | Activity (Mus musculus [13]): 73% | Activity (Mus musculus [14]): 62% | Activity (Mus musculus [15]): 76% | inhibition in vivo at 20 mg/kg (Rattus norvegicus [16]): 39% | Activity (Mus musculus [17]): 59%

CCC(CC)=NNc1nc2ccccc2c(=O)n1Cc1ccccc1
inhibition in vivo at 10 mg/kg (Rattus norvegicus [1]): 49% | inhibition in vivo at 10 mg/kg (Rattus norvegicus [2]): 56% | Activity (Mus musculus [3]): 74% | inhibition in vivo at 20 mg/kg (Rattus norvegicus [4]): 70% | Activity (Mus musculus [5]): 72% | inhibition in vivo at 20 mg/kg (Rattus norvegicus [6]): 68% | Activity (Mus musculus [7]): 50% | inhibition in vivo at 10 mg/kg (Rattus norvegicus [8]): 53% | UI (Rattus norvegicus [9]): 0.5 | inhibition in vivo at 10 mg/kg (Rattus norvegicus [10]): 30% | inhibition in vivo at 20 mg/kg (Rattus norvegicus [11]): 59% | Activity (Mus musculus [12]): 41% | Activity (Mus musculus [13]): 79% | Activity (Mus musculus [14]): 69% | Activity (Mus musculus [15]): 81% | inhibition in vivo at 20 mg/kg (Rattus norvegicus [16]): 41% | Activity (Mus musculus [17]): 63%

CCC/C(C)=N/Nc1nc2ccccc2c(=O)n1Cc1ccccc1
inhibition in vivo at 10 mg/kg (Rattus norvegicus [1]): 47% | inhibition in vivo at 10 mg/kg (Rattus norvegicus [2]): 53% | Activity (Mus musculus [3]): 67% | inhibition in vivo at 20 mg/kg (Rattus norvegicus [4]): 67% | Activity (Mus musculus [5]): 67% | inhibition in vivo at 20 mg/kg (Rattus norvegicus [6]): 65% | Activity (Mus musculus [7]): 48% | inhibition in vivo at 10 mg/kg (Rattus norvegicus [8]): 51% | UI (Rattus norvegicus [9]): 0.48 | inhibition in vivo at 10 mg/kg (Rattus norvegicus [10]): 30% | inhibition in vivo at 20 mg/kg (Rattus norvegicus [11]): 58% | Activity (Mus musculus [12]): 40% | Activity (Mus musculus [13]): 77% | Activity (Mus musculus [14]): 60% | Activity (Mus musculus [15]): 79% | inhibition in vivo at 20 mg/kg (Rattus norvegicus [16]): 39% | Activity (Mus musculus [17]): 58%

O=C([O-])Cc1ccccc1Nc1c(Cl)cccc1Cl.[Na+] [DICLOFENAC SODIUM]
inhibition in vivo at 10 mg/kg (Rattus norvegicus [1]): 32% | inhibition in vivo at 10 mg/kg (Rattus norvegicus [2]): 39% | Activity (Mus musculus [3]): 46% | inhibition in vivo at 20 mg/kg (Rattus norvegicus [4]): 60% | Activity (Mus musculus [5]): 45% | inhibition in vivo at 20 mg/kg (Rattus norvegicus [6]): 52% | Activity (Mus musculus [7]): 39% | inhibition in vivo at 10 mg/kg (Rattus norvegicus [8]): 38% | UI (Rattus norvegicus [9]): 1.65 | inhibition in vivo at 10 mg/kg (Rattus norvegicus [10]): 33% | inhibition in vivo at 20 mg/kg (Rattus norvegicus [11]): 45% | Activity (Mus musculus [12]): 33% | Activity (Mus musculus [13]): 55% | Activity (Mus musculus [14]): 43% | Activity (Mus musculus [15]): 62% | inhibition in vivo at 20 mg/kg (Rattus norvegicus [16]): 42% | Activity (Mus musculus [17]): 37%

Reference: ChEMBL document CHEMBL3046395, “Synthesis and pharmacological investigation of novel 3-(benzyl)-2-substituted amino-3H-quinazolin-4-ones as analgesic and anti-inflammatory agents” (Med Chem Res, 2008)
